Experimental data from US11578054B2, “Compounds useful as immunomodulators” (Bristol-Myers Squibb Company, priority 2018, dated 2023).

target: PD-1/PD-L1 (Homo sapiens (Human), UniProt Q9NZQ7); test: PD-1/PD-L1 Homogenous Time-Resolved Fluorescence (HTRF) binding assay; conditions: PD-L1-His 10 nM, PD-1-Ig 20 nM
Excerpt: The ability of the compounds of formula (I) to bind to PD-L1 was investigated using a PD-1/PD-L1 Homogenous Time-Resolved Fluorescence (HTRF) binding assay.
Homogenous Time-Resolved Fluorescence (HTRF) binding assay.
The interaction of PD-1 and PD-L1 can be assessed using soluble, purified preparations of the extracellular domains of the two proteins. The PD-1 and PD-L1 protein extracellular domains were expressed as fusion proteins with detection tags, for PD-1, the tag was the Fc portion of Immunoglobulin (PD-1-Ig) and for PD-L1 it was the 6 histidine motif (PD-L1-His). All binding studies were performed in an HTRF assay buffer consisting of dPBS supplemented with 0.1% […] bovine serum albumin and 0.05% (v/v) Tween-20. For the h/PD-L1-His binding assay, inhibitors were pre-incubated with PD-L1-His (10 nM final) for 15m in 4 μl of assay buffer, followed by addition of PD-1-Ig (20 nM final) in 1 µl of assay buffer and further incubation for 15m. HTRF detection was achieved using europium crypate-labeled anti-Ig (1 nM final) and allophycocyanin (APC) labeled anti-His (20 nM final). Antibodies were diluted in HTRF detection buffer and 5 μl was dispensed on top of the binding reaction. The reaction mixture was allowed to equilibrate for 30 minutes and the resulting signal (665 nm/620 nm ratio) was obtained using an EnVision fluorometer. Additional binding assays were established between the human proteins PD-1-Ig/PD-L2-His (20 & 5 nM, respectively) and CD8O-His/PD-L1-Ig (100 & 10 nM, respectively).
Recombinant Proteins: Human PD-1 (25-167) with a C-terminal human Fc domain of immunoglobulin G (Ig) epitope tag [hPD-1 (25-167)-3S-IG] and human PD-L1 (18-239) with a C-terminal His epitope tag [hPD-L1(18-239)-TVMV-His] were expressed in HEK293T cells and purified sequentially by ProteinA affinity chromatography and size exclusion chromatography. Human PD-L2-His and CD8O-His was obtained through commercial sources.
The table below lists the IC50 values for representative examples of this disclosure measured in the PD-1/PD-L1 Homogenous Time-Resolved Fluorescence (HTRF) binding assay.

Chain of PD-1/PD-L1 (Q9NZQ7 other isoform, or with tags, fused parts or gaps): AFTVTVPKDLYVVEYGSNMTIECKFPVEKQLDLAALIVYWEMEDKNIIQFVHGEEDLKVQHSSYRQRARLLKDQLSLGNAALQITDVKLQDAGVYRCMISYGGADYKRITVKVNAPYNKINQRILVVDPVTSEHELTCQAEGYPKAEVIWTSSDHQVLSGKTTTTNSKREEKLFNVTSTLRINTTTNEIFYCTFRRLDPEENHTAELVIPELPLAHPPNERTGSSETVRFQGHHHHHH

IC50 | Structure (SMILES)
2.5 nM | C[C@](CO)(NCc1cc(Cl)c(OC2CCc3c(-c4cccc(OCCCNC[C@H](O)CO)c4Cl)cccc32)cc1OCc1cncc(C#N)c1)C(=O)O (stereo partly drawn) [Example 1019, (2R)-2-((5-chloro-4-((4-(2-chloro-3-(3-(((S)-2,3-dihydroxypropyl)amino)propoxy)phenyl)-2,3-dihydro-1H-inden-1-yl)oxy)-2-((5-cyanopyridin-3-yl)methoxy)benzyl)amino)-3-hydroxy-2-methylpropanoic acid]
2.9 nM | CC(=O)NC1CCN(CCCOc2cccc(-c3cccc4c3CCC4Oc3cc(OCc4cncc(C#N)c4)c(CN[C@@H](CCO)C(=O)O)cc3Cl)c2Cl)CC1 (stereo partly drawn) [Example 1018, (4-((4-(3-(3-(4-Acetamidopiperidin-1-yl)propoxy)-2-chlorophenyl)-2,3-dihydro-1H-inden-1-yl)oxy)-5-chloro-2-((5-cyanopyridin-3-yl)methoxy)benzyl)-L-homoserine]
3.4 nM | CC(=O)NC1CCN(CCCOc2cccc(-c3cccc4c3CCC4Oc3cc(OCc4cncc(C#N)c4)c(CN[C@](C)(CO)C(=O)O)cc3Cl)c2Cl)CC1 (stereo partly drawn) [Example 1016, (2R)-2-((4-((4-(3-(3-(4-Acetamidopiperidin-1-yl)propoxy)-2-chlorophenyl)-2,3-dihydro-1H-inden-1-yl)oxy)-5-chloro-2-((5-cyanopyridin-3-yl)methoxy)benzyl)amino)-3-hydroxy-2-methylpropanoic acid]
5.8 nM | Cc1c(OCCCN2CC[C@@H](O)C2)cccc1-c1cccc2c1CCC2Oc1cc(OCc2cncc(C#N)c2)c(CN2CCCC[C@H]2C(=O)O)cc1Cl (stereo partly drawn) [Example 1014, (2S)-1-(5-Chloro-2-((5-cyanopyridin-3-yl)methoxy)-4-((4-(3-(3-((R)-3-hydroxypyrrolidin-1-yl)propoxy)-2-methylphenyl)-2,3-dihydro-1H-inden-1-yl)oxy)benzyl)-piperidine-2-carboxylic acid]
1 nM | N#Cc1cncc(COc2cc(OC3CCc4c(-c5cccc(OCCCNC[C@H](O)CO)c5Cl)cccc43)c(Cl)cc2CN[C@@H](CCO)C(=O)O)c1 (stereo partly drawn) [Example 1021, (5-Chloro-4-((4-(2-chloro-3-(3-(((S)-2,3-dihydroxypropyl)amino)propoxy)phenyl)-2,3-dihydro-1H-inden-1-yl)oxy)-2-((5-cyanopyridin-3-yl)methoxy)benzyl)-L-homoserine]
1.9 nM | Cc1c(OCCCN2CC[C@@H](O)C2)cccc1-c1cccc2c1CCC2Oc1cc(OCc2cncc(C#N)c2)c(CN[C@@H](CCO)C(=O)O)cc1Cl (stereo partly drawn) [Example 1015, (5-chloro-2-((5-cyanopyridin-3-yl)methoxy)-4-((4-(3-(3-((R)-3-hydroxypyrrolidin-1-yl)propoxy)-2-methylphenyl)-2,3-dihydro-1H-inden-1-yl)oxy)benzyl)-L-homoserine]
10.9 nM | N#Cc1cncc(COc2cc(OC3CCc4c(-c5cccc(OCCCNC[C@H](O)CO)c5Cl)cccc43)c(Cl)cc2CO)c1 (stereo partly drawn) [Example 1020, 5-((4-Chloro-5-((4-(2-chloro-3-(3-(((S)-2,3-dihydroxypropyl)amino)propoxy)phenyl)-2,3-dihydro-1H-inden-1-yl)oxy)-2-(hydroxymethyl)phenoxy)methyl)nicotinonitrile]
0.2 nM | CC(=O)NC1CCN(CCCOc2cccc(-c3cccc4c3CCC4Oc3cc(OCc4cncc(C#N)c4)c(CN4CCCC[C@H]4C(=O)O)cc3Cl)c2Cl)CC1 (stereo partly drawn) [Example 1017, (2S)-1-(4-((4-(3-(3-(4-Acetamidopiperidin-1-yl)propoxy)-2-chlorophenyl)-2,3-dihydro-1H-inden-1-yl)oxy)-5-chloro-2-((5-cyanopyridin-3-yl)methoxy)benzyl)piperidine-2-carboxylic acid]

Continued, molecule first:

Structure (SMILES) | IC50
CN1CCC[C@@H](COc2cccc(-c3cccc4c3CC[C@H]4Oc3cc(OCc4cncc(C#N)c4)c(CO)cc3Cl)c2Cl)C1 [Example 1007, 5-((4-chloro-5-(((R)-4-(2-chloro-3-(((R)-1-methylpiperidin-3-yl)methoxy)phenyl)-2,3-dihydro-1H-inden-1-yl)oxy)-2-(hydroxymethyl)phenoxy)methyl)nicotinonitrile] | 4.3 nM
CN1CCC[C@H](COc2cccc(-c3cccc4c3CC[C@H]4Oc3cc(OCc4cncc(C#N)c4)c(CO)cc3Cl)c2Cl)C1 [Example 1011, 5-((4-chloro-5-(((R)-4-(2-chloro-3-(((S)-1-methylpiperidin-3-yl)methoxy)phenyl)-2,3-dihydro-1H-inden-1-yl)oxy)-2-(hydroxymethyl)phenoxy)methyl)nicotinonitrile] | 10.4 nM
CN1CCC[C@@H](COc2cccc(-c3cccc4c3CC[C@H]4Oc3cc(OCc4cncc(C#N)c4)c(CN[C@](C)(CO)C(=O)O)cc3Cl)c2Cl)C1 [Example 1006, (R)-2-((5-chloro-4-(((R)-4-(2-chloro-3-(((R)-1-methylpiperidin-3-yl)methoxy)phenyl)-2,3-dihydro-1H-inden-1-yl)oxy)-2-((5-cyanopyridin-3-yl)methoxy)benzyl)amino)-3-hydroxy-2-methylpropanoic acid] | 3.5 nM
CN1CCCC(COc2cccc(-c3cccc4c3CCC4Oc3cc(OCc4cncc(C#N)c4)c(CN4CCCC[C@H]4C(=O)O)cc3Cl)c2Cl)C1 (stereo partly drawn) [Example 1001, (2S)-1-(5-Chloro-4-((4-(2-chloro-3-((1-methylpiperidin-3-yl)methoxy)phenyl)-2,3-dihydro-1H-inden-1-yl)oxy)-2-((5-cyanopyridin-3-yl)methoxy)benzyl)piperidine-2-carboxylic acid] | 1.4 nM
Cc1c(OCCCN2CC[C@@H](O)C2)cccc1-c1cccc2c1CCC2Oc1cc(OCc2cncc(C#N)c2)c(CO)cc1Cl (stereo partly drawn) [Example 1013, 5-((4-Chloro-2-(hydroxymethyl)-5-((4-(3-(3-((R)-3-hydroxypyrrolidin-1-yl)propoxy)-2-methylphenyl)-2,3-dihydro-1H-inden-1-yl)oxy)phenoxy)methyl)nicotinonitrile] | 18.1 nM
CN1CCC[C@H](COc2cccc(-c3cccc4c3CC[C@@H]4Oc3cc(OCc4cncc(C#N)c4)c(CO)cc3Cl)c2Cl)C1 [Example 1009, 5-((4-chloro-5-(((S)-4-(2-chloro-3-(((S)-1-methylpiperidin-3-yl)methoxy)phenyl)-2,3-dihydro-1H-inden-1-yl)oxy)-2-(hydroxymethyl)phenoxy)methyl)nicotinonitrile] | 24.1 nM
CN1CCC[C@@H](COc2cccc(-c3cccc4c3CC[C@@H]4Oc3cc(OCc4cncc(C#N)c4)c(CN[C@](C)(CO)C(=O)O)cc3Cl)c2Cl)C1 [Example 1004] | 3.9 nM
Cc1c(OCCCN2CC[C@@H](O)C2)cccc1-c1cccc2c1CCC2Oc1cc(OCc2cncc(C#N)c2)c(CN[C@](C)(CO)C(=O)O)cc1Cl (stereo partly drawn) [Example 1012, (2R)-2-((5-Chloro-2-((5-cyanopyridin-3-yl)methoxy)-4-((4-(3-(3-((R)-3-hydroxypyrrolidin-1-yl)propoxy)-2-methylphenyl)-2,3-dihydro-1H-inden-1-yl)oxy)benzyl)-amino)-3-hydroxy-2-methylpropanoic acid] | 1.8 nM
CN1CCC[C@H](COc2cccc(-c3cccc4c3CC[C@@H]4Oc3cc(OCc4cncc(C#N)c4)c(CN[C@](C)(CO)C(=O)O)cc3Cl)c2Cl)C1 [Example 1008, (R)-2-((5-chloro-4-(((S)-4-(2-chloro-3-(((S)-1-methylpiperidin-3-yl)methoxy)phenyl)-2,3-dihydro-1H-inden-1-yl)oxy)-2-((5-cyanopyridin-3-yl)methoxy)benzyl)amino)-3-hydroxy-2-methylpropanoic acid] | 3 nM
CN1CCCC(COc2cccc(-c3cccc4c3CCC4Oc3cc(OCc4cncc(C#N)c4)c(CO)cc3Cl)c2Cl)C1 (centres unmarked) [Example 1003, 5-((4-Chloro-5-((4-(2-chloro-3-((1-methylpiperidin-3-yl)methoxy)phenyl)-2,3-dihydro-1H-inden-1-yl)oxy)-2-(hydroxymethyl)phenoxy)-methyl)nicotinonitrile] | 9.1 nM
CN1CCC[C@@H](COc2cccc(-c3cccc4c3CC[C@@H]4Oc3cc(OCc4cncc(C#N)c4)c(CO)cc3Cl)c2Cl)C1 [Example 1005, 5-((4-chloro-5-(((S)-4-(2-chloro-3-(((R)-1-methylpiperidin-3-yl)methoxy)phenyl)-2,3-dihydro-1H-inden-1-yl)oxy)-2-(hydroxymethyl)phenoxy)methyl)nicotinonitrile] | 10.6 nM
CN1CCC[C@H](COc2cccc(-c3cccc4c3CC[C@H]4Oc3cc(OCc4cncc(C#N)c4)c(CN[C@](C)(CO)C(=O)O)cc3Cl)c2Cl)C1 [Example 1010, (R)-2-((5-chloro-4-(((R)-4-(2-chloro-3-(((S)-1-methylpiperidin-3-yl)methoxy)phenyl)-2,3-dihydro-1H-inden-1-yl)oxy)-2-((5-cyanopyridin-3-yl)methoxy)benzyl)amino)-3-hydroxy-2-methylpropanoic acid] | 2 nM
